Test results as given in patent publication US12251449B2, “Synthetic multidomain peptide biomaterials that inhibit inducible nitric oxide synthase” (William Marsh Rice University, priority 2019, dated 2025).
Several values for one entry are separate records, joined by “and”; a condition that tells them apart may be missing. Equal entries are not always repeated. *1 amine or outer side, *2 acyl side, *3 side chain or, on linkers, in order; H or OH if unused. Where a SMILES comes first, the peptide text is derived from it. [ ]: non-standard residue; d: D form. X1 = CC(=N)NCCCC[C@H](N[*:1])C(=O)[*:2]

Assays:
[1] = Oscillatory rheology of peptide hydrogels; assay type: physicochemical; conditions: hydrogel at 1 wt. % in HBSS with sucrose
Protocol: Oscillatory rheology. Peptide hydrogels were analyzed for their mechanical properties by oscillatory rheology using a TA Instruments AR-G2 rheometer (TA Instruments, New Castle, DE). Samples of 150 μL of 1 wt. % MDP hydrogels were prepared 24 hours prior to use for rheology, to allow full equilibration of the material. Gel samples were then transferred from a cut syringe onto the rheometer stage equipped with a 12 mm stainless-steel parallel plate set to a […] gap height. The following program was used to monitor the storage modulus (G′) and loss modulus (G″) under various conditions as has been previously published (Li & Hartgerink, 2017). Strain sweep analysis was performed using an applied strain of 0.01-200% at a frequency of 1 rad/s. Frequency sweep analysis was performed under 1% strain at 0.1-100 rad/s. Shear recovery analysis was performed by subjecting the peptide sample to 1% strain for 20 min, then 200% for 1 min, and finally 1% for 20 min, allowing for disruption of the hydrogel and monitoring of G′ and G″ recovery.

B16-F0 melanoma tumors = experiment: Tumor growth in the B16-F0 melanoma model; assay type: in vivo, mice; conditions: monotherapy, single intratumoral injection
Protocol: Evaluation of in vivo VEGF reduction using murine B16-F0 melanoma tumor model. C57BL/6J male mice were purchased from The Jackson Laboratory. Tumor inoculation was performed when mice reached 10-14 weeks of age. All experiments were performed with approval of IACUC at Baylor College of Medicine (BCM) and followed established protocols. B16-F0 melanoma cell line was purchased from American Type Culture Collection (ATCC) and maintained according to manufacturer instructions (DMEM high-glucose with 10% fetal bovine serum and 1% penicillin/streptomycin). C57BL/6J mice were injected subcutaneously (s.c.) with 3×10^5 B16-F0 cells in a single flank. Once tumors became palpable (day 7 post-inoculation) mice were injected intratumorally (i.t.) with either vehicle buffer control Hank's Balanced Salt Solution (HBSS), free L-NIL dissolved in HBSS at 20 mM, K2-MDP hydrogel at 1 wt. % (5.6 mM peptide), or L-NIL-MDP hydrogel at 1 wt. % (5.2 mM peptide, or approximately 20 mM L-NIL functional groups). All injections were done using 100 μL total injection volume.

[2] = CDN drug release kinetics from hydrogels; assay type: physicochemical
Protocol: Drug release kinetics. For release kinetics studies of CDN release from various hydrogel formulations, aliquots of CDN-loaded gel (30 μL each) were deposited into 96 well Falcon® flat bottom plates (Becton Dickinson Labware, Franklin Lakes, NJ). 30 μL gel was pipetted to generate a cylindrical puck in each well for each experiment. The pipetted gels were allowed to shear recover for approximately 5-10 min before adding 200 μL of the relevant buffer to the top of the gels (1× HBSS for all MDPs, 1× DPBS for collagen, Matrigel, 1× HBSS with 0.1 M CaCl2) for alginate, etc. according to the gelation requirements of the material). The addition of buffer was defined as t=0 for the beginning of release kinetics experiments. Table 1 summarizes the material conditions and preparation methods used for various comparative CDN delivery kinetics studies.
A Nanodrop 2000C Spectrophotometer (Thermo Scientific) was used to measure drug release by UV absorbance at 259 nm for CDN ML RR-S2 CDA, using an extinction coefficient of 24,000 M^−1cm^−1 (259 nm). Absorbance measurements were obtained by removing […] from the top of the liquid buffers above the loaded gels, over time measuring the increase in absorbance. Over the course of the first 24 hours, release of CDN was measured usually every 1-2 hours and converted to total percent released, with additional measurements also made every 24 hours for up to a week to establish when equilibrium had been reached.

MOC1 cells = experiment: Live-dead viability of MOC1 cells on L-NIL-MDP hydrogel; assay type: cell-based, mouse; conditions: cultured on hydrogel over 7 days
Protocol: Cell culture. The murine oral cancer cell line, MOC1 was provided by Dr. Ravindra Uppaluri (Dana-Farber Cancer Institute, Harvard University, Boston, MA) and maintained as previously described (Judd et al., 2012). For in vitro experiments, mouse MOC1 cells were cultured at 37° C. with 5% CO2 in media routinely used for maintaining this cell line (Judd et al., 2012). For live-dead viability studies done using 2-D culture, peptide hydrogel 70 μL in volume (thickness approximately 1.75 mm) were pipetted into the wells of Lab-Tek 16 well chamber slides (Thermo Fisher, Rochester, NY). The gels were pipetted carefully into the bottom of the wells, and the plates were gently tapped down onto the bench top before shear recovery to flatten the pipetted gels and facilitate uniform spreading of the material. After pipetting, time was allowed for the samples to shear recover (5-10 min) before the addition of 200 μL cell media and 5,000 MOC1 cells. Each time point (days 1, 3, 7) had separate slides prepared with duplicate gels. Cell media was replaced every 2 days, carefully pipetting to avoid dislodging the gel material. […] Image processing was done with NIS Elements (Nikon Instruments, Melville, NY), and Imaris Cell Counting software (Bitplane, Concord, MA) was used to quantify live-dead percentages.

MOC1 tumors = experiment: MOC orthotopic murine model of oral cancer (Example 9); conditions: established 4-5 mm MOC1 tumors, single 30 μl intratumoral injection
Protocol: MOC orthotopic murine model of oral cancer. MOC1 tumors were established by injecting 2×10^6 cells (70%:30% cells: Matrigel®Matrix) into the maxillary vestibule of the left oral cavity in C57BL/6J mice. […] Tumor growth was monitored by tumor size measurements (in diameter) taken at least two times per week using digital calipers to measure the longest dimension (single dimension). Data was then analyzed for Kaplan-Meier survival and tumor growth curves. […] Excessive tumor burden, defined as tumor diameter reaching 12 mm, tumor ulceration, or a weight loss of greater than 20% were factors that were considered for all endpoints in tumor growth and survival data.
Statistical methods. Statistical analyses were performed using Prism 7.0 (GraphPad, San Diego, CA). Statistical analyses for Kaplan-Meier survival curves were performed using the Log-rank/Mantel-Cox test. Statistical significance for tumor growth curves was determined by a two-way ANOVA test followed by selected comparison using Tukey's multiple comparison tests with multiple comparison correction. All p values were two-sided and p values less than 0.05 were considered significant.

CC(=N)NCCCC[C@H](NC(=O)[C@H](CCCCNC(C)=N)NC(=O)[C@H](CC(C)C)NC(=O)[C@H](CO)NC(=O)[C@H](CC(C)C)NC(=O)[C@H](CO)NC(=O)[C@H](CC(C)C)NC(=O)[C@H](CO)NC(=O)[C@H](CC(C)C)NC(=O)[C@H](CO)NC(=O)[C@H](CC(C)C)NC(=O)[C@H](CO)NC(=O)[C@H](CC(C)C)NC(=O)[C@H](CO)NC(=O)[C@H](CCCCNC(C)=N)NC(=O)[C@H](CCCCNC(C)=N)NC(C)=O)C(N)=O [L-NIL-MDP] (Ac-[X1][X1]SLSLSLSLSLSL[X1][X1]-NH2)
loss modulus (G″) [1]: 20-25 Pa and ~25 Pa | storage modulus (G′) [1]: 260-300 Pa and ~300 Pa | tumor growth reduction (in words) (B16-F0 melanoma tumors): no favorable effect on tumor growth reduction | CDN release profile (in words) [2]: comparable or even better controlled release | viability of MOC1 cells (in words) (MOC1 cells): high viability | median survival (MOC1 tumors): 44 days
